Assay results as given in US8227604B2, “Hybrid 2-aminotetralin and aryl-substituted piperazine compounds and their use in altering CNS activity” (Wayne State University, priority 2001, dated 2012).

Key:
D1 receptor = target: T1, D1 receptor (Homo sapiens, UniProt P21728); experiment: Binding affinity at cloned human D1 receptor, [3H]SCH23390 (LHD1 cells)
T1 construct: expressed in transfected cells; host or cells: LHD1 cells
Experimental: LHD1 cells (human receptor) are grown and prepared as described for the HA7 cells as described hereafter. The final pellet is resuspended at 5 mg protein/80 ml in 50 mM Tris-HCl containing 120 mM of NaCl, 5 mM of KCl, 2 mM of CaCl2, and 1 mM of MgCl2, pH 7.4. To wells containing 100 μl of test drug or buffer and […] of [^3H]SCH 23390 (0.18 nM final conc.), is added 0.8 ml of cell homogenate (0.05 mg protein/well), and the plates are incubated at […] for 60 min. Nonspecific binding is determined with 1 μM of SCH 23390.

D2 receptor [1] = target: T2, D2 receptor (Homo sapiens, UniProt P14416); experiment: Binding affinity at cloned human D2 receptor, [3H]YM-09151-2 (CHOp-D2 cells)
T2 construct: expressed in transfected cells
Experimental: (§1) CHOp-cells (human receptors) are grown to confluence in a minimum essential medium (α MEM) containing 10% fetal calf serum, 0.05% pen-strep, and 600 μg/ml of G418. The cells are scraped from the 100 by 20 mm plates and centrifuged at 500. g for 5 min. The pellet is homogenized by polytron in 50 mM Tris-HCl, pH 7.7, and centrifuged at 27,000·G for 12 min. The pellet is resuspended in 50 mM Tris, D2 at 5 mg protein/ml, D3 at 1 mg protein/ml, and stored at −70° C. in 1-ml aliquots.
(§2) On the day of the experiment, CHOp-D2 or CHOp-D3 cells are thawed, resuspended in 50 mM Tris, and centrifuged at 27,000·G for 12 min. The pellet is then resuspended at 5 mg protein/80 ml (D2) and 1 mg protein/80 ml (D3) in 50 mM Tris containing 120 mM of NaCl, 5 mM of KCl, 1.5 mM of CaCl2, 4 mM of MgCl2, and 1 mM of EDTA, pH 7.4. […] Nonspecific binding is determined with 1 mM of chlorpromazine. The plates are incubated at 25° C. for 60 min before filtration and counted as usual. The filters are soaked in 0.1% PEI before filtering.

D2 receptor [2] = target: T2, D2 receptor; experiment: Agonist potency by [3H]thymidine incorporation (mitogenesis), D2; assay type: cell-based; settings: [3H]thymidine incorporation; for Emax: >80% full agonist, read-out: D2 % Maxm Stim
Experimental: (§3) Potential as domaminergenic agonists was assayed by ^3H-thymidine incorporation by standard techniques.
(§4) The EC50 values thus indicate intrinsic activities or functional activities of these compounds. The value of % maximum stimulation indicates whether a compound is a partial agonist or full agonist. Generally, a value greater than 80% is considered as a full agonist and anything less than 80% is considered as a partial agonist.

D4 receptor [3] = target: T3, D4 receptor (Homo sapiens, UniProt P21917); experiment: Agonist potency by [3H]thymidine incorporation (mitogenesis), D4; assay type: cell-based; parameters: expressed in transfected cells; settings: for EC50 / D4 % Maxm Stim: [3H]thymidine incorporation; for D4 % Maxm Stim: >80% full agonist
T3 sequence (P21917 1-419): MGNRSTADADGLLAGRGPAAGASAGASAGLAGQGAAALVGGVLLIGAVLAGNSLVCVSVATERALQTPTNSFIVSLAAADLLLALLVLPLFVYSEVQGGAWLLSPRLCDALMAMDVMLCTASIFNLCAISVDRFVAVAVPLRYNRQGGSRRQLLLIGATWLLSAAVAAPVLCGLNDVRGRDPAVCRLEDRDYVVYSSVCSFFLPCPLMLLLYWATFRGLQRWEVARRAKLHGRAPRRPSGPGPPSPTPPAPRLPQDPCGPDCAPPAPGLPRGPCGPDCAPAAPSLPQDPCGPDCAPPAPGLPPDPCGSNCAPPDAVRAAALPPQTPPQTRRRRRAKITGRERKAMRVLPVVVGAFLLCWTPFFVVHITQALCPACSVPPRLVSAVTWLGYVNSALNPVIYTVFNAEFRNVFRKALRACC
Experimental: as §3
The mitogenesis study results presented in Table 7 assay the ability of these ligands to act as agonists or antagonists. The EC50 values thus indicate intrinsic activities or functional activities of these compounds. The value of % maximum stimulation indicates whether a compound is a partial agonist or full agonist. Generally, a value greater than 80% is considered as a full agonist and anything less than 80% is considered as a partial agonist. A compound will be considered antagonist if it produces a negative result (no [3H]thymidine incorporation) in the assay. All the compounds reported in Table 7 are either full agonists or partial agonists.

D3 receptor [4] = target: T4, D3 receptor (Homo sapiens, UniProt P35462); experiment: Binding affinity at cloned human D3 receptor, [3H]YM-09151-2 (CHOp-D3 cells); parameters: expressed in transfected cells; host or cells: CHOp-D3 cells; settings: for Ki: cloned human D3; for D2/D3: ratio of Ki D2 to Ki D3, [3H]YM-09151-2 protocol of Table 4
Experimental: as §1, §2

D3 receptor [5] = target: T4, D3 receptor; experiment: Agonist potency by [3H]thymidine incorporation (mitogenesis), D3; assay type: cell-based; parameters: expressed in transfected cells; host or cells: CHOp-D3 cells; settings: for EC50 / Emax: [3H]thymidine incorporation; for Emax: >80% full agonist, read-out: D3 % Maxm Stim
Experimental: as §3, §4

D4 receptor [6] = target: T3, D4 receptor; experiment: Binding affinity at cloned human D4 receptor, [3H]YM-09151-2 (CHO D4.4 cells); parameters: expressed in transfected cells; host or cells: CHO D4.4 cells; settings: for Ki: cloned human D4
Experimental: CHO D4.4 cells (human receptors) are grown to confluence in D4 Puromycin medium containing 2 μg/ml puromycin, 5% fetal calf serum and 5 supplemented calf serum and 0.5% pen-strep. The cells are harvested as described for D2 and D3 cells and used at a concentration of 0.15 mg protein/well in the [^3H]YM-09151-2 binding assay.

T4 sequence (P35462 whole entry): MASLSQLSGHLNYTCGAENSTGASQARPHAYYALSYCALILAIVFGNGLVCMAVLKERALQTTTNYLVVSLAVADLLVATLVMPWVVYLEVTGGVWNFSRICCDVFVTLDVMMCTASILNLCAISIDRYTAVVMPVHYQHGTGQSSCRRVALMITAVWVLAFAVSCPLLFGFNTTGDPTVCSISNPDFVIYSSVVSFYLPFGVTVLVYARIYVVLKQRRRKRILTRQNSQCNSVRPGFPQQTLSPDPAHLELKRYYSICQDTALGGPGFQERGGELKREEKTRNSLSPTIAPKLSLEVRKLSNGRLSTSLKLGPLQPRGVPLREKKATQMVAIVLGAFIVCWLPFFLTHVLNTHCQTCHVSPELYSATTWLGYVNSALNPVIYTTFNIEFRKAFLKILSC
T2 sequence (P14416 whole entry): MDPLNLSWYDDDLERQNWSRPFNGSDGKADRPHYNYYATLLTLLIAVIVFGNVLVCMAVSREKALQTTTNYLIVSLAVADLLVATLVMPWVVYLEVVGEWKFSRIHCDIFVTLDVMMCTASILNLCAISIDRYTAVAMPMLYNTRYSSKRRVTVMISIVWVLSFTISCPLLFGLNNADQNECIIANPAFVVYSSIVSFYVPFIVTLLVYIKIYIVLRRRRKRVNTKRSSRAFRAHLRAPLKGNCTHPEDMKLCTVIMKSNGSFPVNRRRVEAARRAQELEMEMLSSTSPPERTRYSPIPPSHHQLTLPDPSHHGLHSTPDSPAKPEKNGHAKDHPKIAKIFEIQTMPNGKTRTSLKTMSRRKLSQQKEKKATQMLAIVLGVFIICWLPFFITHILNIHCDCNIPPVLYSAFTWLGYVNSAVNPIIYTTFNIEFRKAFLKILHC
T1 sequence (P21728 whole entry): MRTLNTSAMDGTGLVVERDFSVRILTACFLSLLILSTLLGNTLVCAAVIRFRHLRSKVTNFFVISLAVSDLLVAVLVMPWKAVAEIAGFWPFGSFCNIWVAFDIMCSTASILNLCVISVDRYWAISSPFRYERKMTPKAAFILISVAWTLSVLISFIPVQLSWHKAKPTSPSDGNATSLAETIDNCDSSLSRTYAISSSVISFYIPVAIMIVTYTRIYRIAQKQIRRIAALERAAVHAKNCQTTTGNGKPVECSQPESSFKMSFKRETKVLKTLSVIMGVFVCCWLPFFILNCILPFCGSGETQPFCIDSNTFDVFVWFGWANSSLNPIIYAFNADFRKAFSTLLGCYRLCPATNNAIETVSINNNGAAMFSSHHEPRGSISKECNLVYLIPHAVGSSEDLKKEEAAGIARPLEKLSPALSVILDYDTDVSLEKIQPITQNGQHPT

Ki (D1 receptor) [nM] | Ki (D2 receptor [1]) [nM] | EC50 (D2 receptor [2]) [nM] | Emax (D2 receptor [2]) [%] | EC50 (D4 receptor [3]) [nM] | D4 % Maxm Stim (D4 receptor [3]) [%] | Ki (D3 receptor [4]) [nM] | D2/D3 (D3 receptor [4]) | EC50 (D3 receptor [5]) [nM] | Emax (D3 receptor [5]) [%] | Ki (D4 receptor [6]) [nM] | agonist character at the D4 receptor (D4 receptor [3]; functional assay) | agonist character at the D3 receptor (D3 receptor [5]; functional assay) | affinity at the D4 receptor (D4 receptor [6]) | SMILES
3730 ± 272 | 119 ± 1.45 | 115 ± 20.2 | 44.9 ± 0.84 | 32.2 ± 2.51 | 51.08 ± 1.72 | 313 ± 6.47 | 0.38 | 110 ± 33.3 | 44.1 ± 11.6 | 137 ± 10.2 |  |  |  | O=C(NCCCCN(CCCCN1CCN(c2ccccc2)CC1)C1CCc2ccc(O)cc2C1)c1ccccc1 (stereo not shown) [Compound 10a, 7-Hydroxyl-2-[N-(4-benzoylaminobutyl)-(N-(4-phenylpiperazin-1-yl)-butyl)amino]tetralin]
3218 ± 7.77 | 89.8 ± 32.5 | 74.5 ± 32.9 | 54.1 ± 4.82 | 54.8 ± 18.6 |  | 75.8 ± 6.29 | 1.18 | 68.1 ± 36.7 | 67.1 ± 1.93 | 142 ± 6.5 |  |  |  | N#CCCCN(CCCCN1CCN(c2ccccc2)CC1)C1CCc2ccc(O)cc2C1 (stereo not shown) [Compound 8, 7-Hydroxy-2-[N-butyonitrile-(N-(4-phenylpiperazin-1-yl)-butyl)amino]tetralin]
6120 ± 933 | 3.37 ± 0.78 | 3.21 ± 0.46 | 121 ± 26.1 | 22.5 ± 11 | 102.81 ± 20.21 | 3.47 ± 0.08 | 1 | 0.91 ± 0.46 | 74.9 ± 9.05 | 25.7 ± 25.7 | full agonists | partial agonism | good affinity | CCCN(CCCCN1CCN(c2ccccc2)CC1)C1CCc2ccc(O)cc2C1 (stereo not shown) [Compound 15b, 7-Hydroxyl-2-[N-propyl-(N-(4-phenylpiperazin-1-yl)-butyl)amino]tetralin]
2950 ± 238 | 111 ± 32.2 | 97.2 ± 47.7 | 27 ± 5.54 | 26.7 ± 10.6 | 71.36 ± 10.17 | 84.6 ± 1.55 | 1.30 | 104 ± 57.3 | 50.9 ± 12.6 | 35.6 ± 1.42 |  |  |  | O=C(NCCN(CCCCN1CCN(c2ccccc2)CC1)C1CCc2ccc(O)cc2C1)c1ccccc1 (stereo not shown) [Compound 10b, 7-Hydroxy-2-[N-(2-benzoylamino)ethyl-(N-(4-phenylpiperazin-1-yl)-butyl)amino]tetralin]
